Values of other authors in paper PMC9150182 (ACS Sensors, 2022).

Experiments:
5-HT1A = target: T1, 5-HT1A (Homo sapiens, UniProt P08908); settings: yeast, Gpa1/Gαi3 chimera
T1 sequence (P08908 1-422): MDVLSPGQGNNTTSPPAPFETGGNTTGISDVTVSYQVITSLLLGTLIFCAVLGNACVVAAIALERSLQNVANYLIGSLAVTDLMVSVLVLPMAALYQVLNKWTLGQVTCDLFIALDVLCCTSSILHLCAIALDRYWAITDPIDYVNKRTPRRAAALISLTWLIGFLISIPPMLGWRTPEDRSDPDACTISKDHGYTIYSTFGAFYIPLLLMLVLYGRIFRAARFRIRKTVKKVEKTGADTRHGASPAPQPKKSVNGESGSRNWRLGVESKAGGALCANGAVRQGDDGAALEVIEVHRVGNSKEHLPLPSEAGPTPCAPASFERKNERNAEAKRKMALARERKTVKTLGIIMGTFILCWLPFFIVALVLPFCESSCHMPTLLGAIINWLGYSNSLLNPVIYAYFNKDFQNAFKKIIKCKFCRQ

5-HT4 isoform g 302Y>F [1] = settings: 302Y>F variant, COS7 cells
5-HT4 isoform g 302Y>F [2] = settings: 302Y>F variant, COS7 cells; remark: listed apart in the source

SMILES	increase over basal fluorescence after activation with serotonin (5-HT1A)	effect of variant on serotonin-induced activity (5-HT4 isoform g 302Y>F [1])	decrease of affinity to the receptor (5-HT4 isoform g 302Y>F [2])
NCCc1c[nH]c2ccc(O)cc12 [serotonin]	300%	did not affect serotonin-induced activity	
Cn1cc(C(=O)OCC2CCN(CCNS(C)(=O)=O)CC2)c2ccccc21 [GR113808]			13 fold
